The record followed here is patent US9416125B2, “Substituted cycloalkenopyrazoles as BUB1 inhibitors for the treatment of cancer” (BAYER PHARMA AKTIENGESELLSCHAFT, priority 2012, dated 2016).

For assay [1], the target named is T1, catalytic domain of human Bub1 (amino acids 704-1085) (Homo sapiens, UniProt O43683).
T1 construct: catalytic domain of human Bub1 (amino acids 704-1085); His6 (N); made in house; host or cells: Hi5 insect cells
The assay can be described thus: Bub1 kinase assay (TR-FRET). The assay is classed as biochemical. To be noted: 10 μM ATP, 1 μM peptide substrate, median, read-out: Biological Assay 1: Bub1 kinase assay median IC50. An excerpt:
Bub1-inhibitory activities of compounds described in the present invention were quantified using a time-resolved fluorescence energy transfer (TR-FRET) kinase assay which measures phosphorylation of the synthetic peptide Biotin-Ahx-VLLPKKSFAEPG (C-terminus in amide form), purchased from e.g. Biosyntan (Berlin, Germany) by the (recombinant) catalytic domain of human Bub1 (amino acids 704-1085), expressed in Hi5 insect cells with an N-terminal His6-tag and purified by affinity- (Ni-NTA) and size exclusion chromatography.
In a typical assay 11 different concentrations of each compound (0.1 nM, 0.33 nM, 1.1 nM, 3.8 nM, 13 nM, 44 nM, 0.15 μM, 0.51 μM, 1.7 μM, 5.9 μM and 20 μM) were tested in duplicate within the same microtiter plate. To this end, 100-fold concentrated compound solutions (in DMSO) were previously prepared by serial dilution (1:3.4) of 2 mM stocks in a clear low volume 384-well source microtiter plate (Greiner Bio-One, Frickenhausen, Germany), from which 50 nL of compounds were transferred into a black low volume test microtiter plate from the same supplier. Subsequently, 2 μL of Bub1 (the final concentration of Bub1 was adjusted depending on the activity of the enzyme lot in order to be within the linear dynamic range of the assay: typically ˜200 ng/mL were used) in aqueous assay buffer [50 mM Tris/HCl pH 7.5, 10 mM magnesium chloride (MgCl2), 200 mM potassium chloride (KCl), 1.0 mM dithiothreitol (DTT), 0.1 mM sodium ortho-vanadate, 1% (v/v) glycerol, 0.01% (w/v) bovine serum albumine (BSA), 0.005% (v/v) Trition X-100 (Sigma), 1× Complete EDTA-free protease inhibitor mixture (Roche)] were added to the compounds in the test plate and the mixture was incubated for 15 min at 22° C. to allow pre-equilibration of the putative enzyme-inhibitor complexes before the start of the kinase reaction, which was initiated by the addition of 3 μL 1.67-fold concentrated solution (in assay buffer) of adenosine-tri-phosphate (ATP, 10 μM final concentration) and peptide substrate (1 μM final concentration). The resulting mixture (5 μL final volume) was incubated at 22° C. during 60 min, and the reaction was stopped by the addition of 5 μL of an aqueous EDTA-solution (50 mM EDTA, in 100 mM HEPES pH 7.5 and 0.2% (w/v) bovine serum albumin) which also contained the TR-FRET detection reagents (0.2 μM streptavidin-XL665 [Cisbio Bioassays, Codolet, France] and 1 nM anti-phosho-Serine antibody [Merck Millipore, cat. #35-001] and 0.4 nM LANCE EU-W1024 labeled anti-mouse IgG antibody [Perkin-Elmer, product no. AD0077, alternatively a Terbium-cryptate-labeled anti-mouse IgG antibody from Cisbio Bioassays can be used]). The stopped reaction mixture was further incubated 1 h at 22° C. in order to allow the formation of complexes between peptides and detection reagents. Subsequently, the amount of product was evaluated by measurement of the resonance energy transfer from the Eu-chelate-antibody complex recognizing the Phosphoserine residue to the streptavidin-XL665 bound to the biotin moiety of the peptide. To this end, the fluorescence emissions at 620 nm and 665 nm after excitation at 330-350 nm were measured in GTR-FRET plate reader, e.g. a Rubystar or Pherastar (both from BMG Labtechnologies, Offenburg, Germany) or a Viewlux (Perkin-Elmer) and the ratio of the emissions (665 nm/622 nm) was taken as indicator for the amount of phosphorylated substrate. The data were normalised using two sets of (typically 32-) control wells for high- (=enzyme reaction without inhibitor=0%=Minimum inhibition) and low- (=all assay components without enzyme=100%=Maximum inhibition) Bub1 activity. IC50 values were calculated by fitting the normalized inhibition data to a 4-parameter logistic equation (Minimum, Maximum, IC50, Hill; Y=Max+(Min−Max)/(1+(X/IC50)Hill)).

Assay [2] has as its system HeLa cell line. The assay can be described thus: Proliferation assay (crystal violet staining). The assay is classed as cell-based. To be noted: Homo sapiens, 96 h, 4 days incubation, range 0.001-10 μM, median, read-out: Biological Assay 2: Proliferation assay (HeLa cell line) median IC50. How it is done: Cultivated tumor cells (cells were ordered from ATCC, except HeLa-MaTu and HeLa-MaTu-ADR, which were ordered from EPO-GmbH, Berlin) were plated at a density of 1000 to 5000 cells/well, depending on the growth rate of the respective cell line, in a 96-well multititer plate in 200 μL of their respective growth medium supplemented 10% fetal calf serum. After 24 h, the cells of one plate (zero-point plate) were stained with crystal violet (see below), while the medium of the other plates was replaced by fresh culture medium (200 μL), to which the test substances were added in various concentrations (0 μM, as well as in the range of 0.001-10 μM; the final concentration of the solvent DMSO was 0.5%). The cells were incubated for 4 days in the presence of test substances. Cell proliferation was determined by staining the cells with crystal violet: the cells were fixed by adding 20 μL/measuring point of an 11% glutaric aldehyde solution for 15 min at rt. After three washing cycles of the fixed cells with water, the plates were dried at rt. The cells were stained by adding 100 μL/measuring point of a 0.1% crystal violet solution (pH 3.0). After three washing cycles of the stained cells with water, the plates were dried at rt. The dye was dissolved by adding 100 μL/measuring point of a 10% acetic acid solution. Absorbtion was determined by photometry at a wavelength of 595 nm. The change of cell number, in percent, was calculated by normalization of the measured values to the aborbtion values of the zero-point plate (=0%) and the absorbtion of the untreated (0 μm) cells (=100%). The IC50 values were determined by means of a 4 parameter fit.

Bounds are passed on as bounds.

T1 sequence (O43683 704-1085): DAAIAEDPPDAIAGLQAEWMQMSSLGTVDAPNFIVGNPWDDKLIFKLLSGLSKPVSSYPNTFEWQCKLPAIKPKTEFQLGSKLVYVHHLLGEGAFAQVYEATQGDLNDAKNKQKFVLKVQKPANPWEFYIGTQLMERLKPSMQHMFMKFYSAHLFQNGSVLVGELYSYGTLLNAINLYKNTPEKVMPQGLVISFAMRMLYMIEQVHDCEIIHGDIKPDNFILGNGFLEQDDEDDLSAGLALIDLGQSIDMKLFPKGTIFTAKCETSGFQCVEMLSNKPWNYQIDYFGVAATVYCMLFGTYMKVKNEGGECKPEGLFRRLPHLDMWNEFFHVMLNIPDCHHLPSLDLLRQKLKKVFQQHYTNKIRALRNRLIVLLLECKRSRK

Consider `N#Cc1cnccc1Nc1nc(-c2nn(Cc3ccccc3F)c3c2CCC3)ncc1O` [Example 2-2-2, 4-({2-[1-(2-fluoro-benzyl)-1,4,5,6-tetrahydrocyclopenta [c]pyrazol-3-yl]-5-hydroxy-pyrimidin-4-yl}amino) nicotinonitrile], for which the IC50 stood at 0.07 µM in assay [1] and 6 µM in assay [2].

With `COc1ccc(Cn2nc(-c3ncc(O)c(Nc4ccncc4)n3)c3c2CCC3)cc1` [Example 2-2-3, 2-[1-(4-methoxy-benzyl)-1,4,5,6-tetrahydrocyclopenta [c]pyrazol-3-yl]-4-(pyridin-4-ylamino) pyrimidin-5-ol], the IC50 in assay [1] is 0.1 µM; in assay [2] it was no less than 10 µM.

In the case of `CCOc1cc(F)c(Cn2nc(-c3ncc(OCCN(C)C)c(Nc4ccncc4)n3)c3c2CCC3)c(F)c1` [Example 2-3-1, 5-[2-(dimethylamino)ethoxy]-2-[1-(4-ethoxy-2,6-difluorobenzyl)-1,4,5,6-tetrahydrocyclopenta[c]pyrazol-3-yl]-N-(pyridin-4-yl)pyrimidin-4-amine], the IC50 is 0.009 µM in assay [1] and 1 µM in assay [2].

For `CCOc1cc(F)c(Cn2nc(-c3ncc(OCC4(CO)COC4)c(Nc4ccncc4)n3)c3c2CCC3)c(F)c1` [Example 2-3-2, {3-[({2-[1-(4-ethoxy-2,6-difluoro-benzyl)-1,4,5,6-tetrahydrocyclopenta [c]pyrazol-3-yl]-4-(pyridin-4-ylamino)pyrimidin-5-yl}oxy)methyl]oxetan-3-yl}methanol], the IC50 is 0.006 µM in assay [1] and no less than 10 µM in assay [2].

Take `CCOc1cc(F)c(Cn2nc(-c3ncc(OCCN4CCCC4)c(Nc4ccncc4)n3)c3c2CCC3)c(F)c1` [Example 2-3-3, 2-[1-(4-ethoxy-2,6-difluoro-benzyl)-1,4,5,6-tetrahydrocyclopenta [c]pyrazol-3-yl]-N-(pyridin-4-yl)-5-[2-(pyrrolidin-1-yl)ethoxy] pyrimidin-4-amine]: the IC50 in assay [1] stood at 0.02 µM; in assay [2], 1 µM.

On to `CCOC(=O)c1cnccc1Nc1nc(-c2nn(Cc3ccccc3F)c3c2CCC3)ncc1OCC1(CO)COC1` [Example 2-3-4, ethyl 4-[(2-[1-(2-fluoro-benzyl)-1,4,5,6-tetrahydrocyclopenta [c]pyrazol-3-yl]-5-{[3-(hydroxymethyl)oxetan-3-yl]methoxy}pyrimidin-4-yl)amino] nicotinate], for which the IC50 in assay [1] was 0.04 µM; in assay [2], no less than 10 µM.

`N#Cc1cnccc1Nc1nc(-c2nn(Cc3ccccc3F)c3c2CCC3)ncc1OCC1(CO)COC1` [Example 2-3-5, 4-[(2-[1-(2-fluoro-benzyl)-1,4,5,6-tetrahydrocyclopenta [c]pyrazol-3-yl]-5-{[3-(hydroxymethyl)oxetan-3-yl]methoxy}pyrimidin-4-yl)amino] nicotinonitrile]: the values for the IC50 in assay [1] and in assay [2] were 0.04 µM and 4 µM, respectively.

Regarding `CS(=O)(=O)CCCOc1cnc(-c2nn(Cc3ccccc3F)c3c2CCC3)nc1Nc1ccncc1C(N)=O` [Example 2-3-9, 4-({2-[1-(2-fluoro-benzyl)-1,4,5,6-tetrahydrocyclopenta [c]pyrazol-3-yl]-5-[3-(methyl-sulfonyl)propoxy]pyrimidin-4-yl}amino) nicotinamide], the IC50 is 0.1 µM in assay [1] and no less than 10 µM in assay [2].

As to `CCOc1cc(F)c(Cn2nc(-c3ncc(O)c(N(CCN(C)C)c4ccncc4)n3)c3c2CCC3)c(F)c1` [Example 2-4-1, 4-{[2-(dimethylamino)ethyl](pyridin-4-yl)amino}-2-[1-(4-ethoxy-2,6-difluorobenzyl)-1,4,5,6-tetrahydrocyclopenta[c]pyrazol-3-yl]pyrimidin-5-ol], the values for the IC50 in assay [1] and in assay [2] were 0.2 µM and no less than 10 µM, respectively.

Take `CCOc1cc(F)c(Cn2nc(-c3ncc(O)c(N(CCN4CCCC4)c4ccncc4)n3)c3c2CCC3)c(F)c1` [Example 2-4-2, 2-[1-(4-ethoxy-2,6-difluoro-benzyl)-1,4,5,6-tetrahydrocyclopenta [c]pyrazol-3-yl]-4-{pyridin-4-yl[2-(pyrrolidin-1-yl)ethyl]amino} pyrimidin-5-ol]: the IC50 in assay [1] was 0.9 µM; in assay [2], no less than 10 µM.

For `COc1cnc(-c2nn(Cc3ccccc3F)c3c2CCC3)nc1Nc1ccncc1C(N)=O` [Example 2-5-1, 4-({2-[1-(2-fluorobenzyl)-1,4,5,6-tetrahydrocyclopenta[c]pyrazol-3-yl]-5-methoxypyrimidin-4-yl}amino)nicotinamide], the IC50 in assay [1] is 0.01 µM; in assay [2] it was no less than 10 µM.

For the molecule `CCOC(=O)c1cnccc1Nc1nc(-c2nn(Cc3ccccc3F)c3c2CCC3)ncc1O` [Example 2-8-1, ethyl 4-({2-[1-(2-fluorobenzyl)-1,4,5,6-tetrahydrocyclopenta[c]pyrazol-3-yl]-5-hydroxypyrimidin-4-yl}amino)nicotinate], the IC50 in assay [1] is 0.03 µM; in assay [2], no less than 10 µM.

Turning to `NC(=O)c1cnccc1Nc1nc(-c2nn(Cc3ccccc3F)c3c2CCC3)ncc1OCCO` [Example 2-10-1, 4-({2-[1-(2-fluorobenzyl)-1,4,5,6-tetrahydrocyclopenta[c]pyrazol-3-yl]-5-(2-hydroxyethoxyl)pyrimidin-4-yl}amino)nicotinamide], the IC50 in assay [1] is 0.07 µM; in assay [2], 50 µM.

As to `NC(=O)c1cnccc1N(CCO)c1nc(-c2nn(Cc3ccccc3F)c3c2CCC3)ncc1OCCO` [Example 2-10-2, 4-[{2-[1-(2-fluoro-benzyl)-1,4,5,6-tetrahydrocyclopenta [c]pyrazol-3-yl]-5-(2-hydroxy-ethoxy)pyrimidin-4-yl}(2-hydroxy-ethyl)amino] nicotinamide], the IC50 in assay [1] was 2 µM; in assay [2] it was no less than 10 µM.

As for `N#Cc1cnccc1Nc1nc(-c2nn(Cc3ccccc3F)c3c2CCC3)ncc1OCCO` [Example 2-11-1, 4-({2-[1-(2-fluorobenzyl)-1,4,5,6-tetrahydrocyclopenta[c]pyrazol-3-yl]-5-(2-hydroxyethoxyl)pyrimidin-4-yl}amino)nicotinonitrile], the IC50 in assay [1] was 0.4 µM; in assay [2], no less than 10 µM.
